From patent publication US5559153A, “Urea-substituted benzoylguanidines, process for their preparation, their use as pharmaceutical or diagnostic, and pharmaceutical containing them” (priority 1993, dated 1996)
Structures can show the parent of a compound that is named as a salt.

Tests used:
[1] = molecular target: T1, Na^+ /H^+ exchanger of rabbit erythrocytes (Oryctolagus cuniculus, UniProt P23791); test: Inhibition of the Na^+ /H^+ exchanger of rabbit erythrocytes (Na^+ influx by flame photometry); type: cell-based, rabbit (New Zealand White); conditions: pH 7.4, 37° C., Na^+ influx in hyperosmolar salt/sucrose medium
T1 construct: Na^+ influx into the erythrocytes via Na^+ /H^+ exchange; endogenous in cells; host or cells: intact erythrocytes from blood of cholesterol-fed New Zealand White rabbits (Ivanovas)
Source text: Inhibition of the Na^+ /H^+ exchanger of rabbit erythrocytes:
New Zealand White rabbits (Ivanovas) received a standard diet containing 2% cholesterol for six weeks in order to activate the Na^+ /H^+ exchange and thus to be able to determine, by flame photometry, the Na^+ influx into the erythrocytes via Na^+ /H^+ exchange. The blood was removed from the aural arteries and rendered incoagulable using 25 IE/ml of potassium heparin. A part of each sample was used for the duplicate determination of the hematocrit by means of centrifugation. Aliquots of in each case 100 μl were used for measuring the initial Na^+ content of the erythrocytes.
In order to determine the amiloride-sensitive sodium influx, 100 μl of each blood sample were in each case incubated, at pH 7.4 and 37° C., in 5 ml of a hyperosmolar salt/sucrose medium (mmol/l: 140 NaCl, 3 KCl, 150 sucrose, 0.1 ouabain, 20 tris(hydroxymethyl)aminomethane). The erythrocytes were then washed three times with ice-cold MgCl2 /ouabain solution (mmol/l: 112 MgCl2, 0.1 ouabain) and hemolyzed in 2.0 ml of distilled water. The intracellular sodium content was determined by flame photometry.
The net influx of Na^+ was calculated from the difference between the initial sodium values and the sodium content of the erythrocytes following incubation. The amiloride-inhibitable sodium influx resulted from the difference in the sodium content of the erythrocytes following incubation with and without amiloride 3×10^-4 mol/l. This method was also employed in the case of the compounds according to the invention.

[2] = system: artificially induced ventricular fibrillation, rat hearts; conditions: isolated rat hearts; cited from earlier work
[3] = system: cardiac arrhythmias; conditions: in vivo; cited from earlier work

T1 sequence (P23791 whole entry): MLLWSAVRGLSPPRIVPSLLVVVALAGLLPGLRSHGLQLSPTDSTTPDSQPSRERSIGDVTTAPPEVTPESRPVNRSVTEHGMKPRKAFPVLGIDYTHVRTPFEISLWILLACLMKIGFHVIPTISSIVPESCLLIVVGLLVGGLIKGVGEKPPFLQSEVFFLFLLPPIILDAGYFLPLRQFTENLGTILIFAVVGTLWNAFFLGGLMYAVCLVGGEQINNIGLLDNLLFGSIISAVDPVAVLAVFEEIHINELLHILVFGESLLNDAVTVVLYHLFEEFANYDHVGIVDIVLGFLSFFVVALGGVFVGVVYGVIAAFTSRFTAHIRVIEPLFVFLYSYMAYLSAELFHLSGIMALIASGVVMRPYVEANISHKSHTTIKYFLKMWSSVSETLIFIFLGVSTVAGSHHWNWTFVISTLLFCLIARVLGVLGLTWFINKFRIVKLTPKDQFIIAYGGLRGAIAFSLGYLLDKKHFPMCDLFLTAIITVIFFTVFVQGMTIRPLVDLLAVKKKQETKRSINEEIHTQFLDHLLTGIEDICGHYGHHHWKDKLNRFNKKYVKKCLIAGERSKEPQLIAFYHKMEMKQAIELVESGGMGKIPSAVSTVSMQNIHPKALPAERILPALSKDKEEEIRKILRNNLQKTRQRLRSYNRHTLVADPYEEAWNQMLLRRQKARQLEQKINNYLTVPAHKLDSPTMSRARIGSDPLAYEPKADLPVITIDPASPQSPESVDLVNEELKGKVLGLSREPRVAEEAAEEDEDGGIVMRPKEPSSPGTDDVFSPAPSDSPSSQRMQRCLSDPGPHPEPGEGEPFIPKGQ

| Compound | IC50 [1] [µM] | other results |
| --- | --- | --- |
| CCNC(=S)Nc1cc(C(=O)NC(=N)N)ccc1Cl [Example 17, 4-Chloro-3-(ethylaminothiocarbonylamino)benzoylguanidine hydrochloride] | 3 to 5 |  |
| CCN(c1nc(N)c(C(=O)NC(=N)N)nc1Cl)C(C)C [ethylisopropylamiloride] |  | suppression of artificially induced ventricular fibrillation [2]: even more potent than amiloride |
| CCCNC(=O)Nc1c(Cl)cc(C(=O)NC(=N)N)cc1Cl [Example 20, 3,5-Dichloro-4-(n-propylaminocarbonylamino)benzoylguanidine hydrochloride] | 2 to 5 |  |
| CC(C)(C)NC(=O)Nc1ccc(Cl)cc1C(=O)NC(=N)N [Example 7, 5-Chloro-2-(tert-butylaminocarbonylamino)benzoylguanidine hydrochloride] | 3 to 8 |  |
| N=C(N)NC(=O)c1cc(Cl)ccc1NC(=O)N1CCCCC1 [Example 1, 5-Chloro-2-(piperidinocarbonylamino)benzoylguanidine] | 1 to 2 |  |
| N=C(N)NC(=O)c1nc(Cl)c(N)nc1N [amiloride] |  | antiarrhythmic effect [3]: only weakly expressed; side effects (hypotensive and saluretic) [3]: hypotensive and saluretic effects; suppression of artificially induced ventricular fibrillation [2]: completely suppress artificially induced ventricular fibrillation |
| N=C(N)NC(=O)c1cc(Cl)c(NC(=O)Nc2ccccc2)c(Cl)c1 [Example 21, 3,5-Dichloro-4-(phenylaminocarbonylamino)benzoylguanidine hydrochloride] | 1 |  |
| CN(C)C(=O)Nc1ccc(Cl)cc1C(=O)NC(=N)N [Example 3, 5-Chloro-2-(dimethylaminocarbonylamino)benzoylguanidine hydrochloride] | 3 |  |
